The record followed here is ChEMBL document CHEMBL1177855, “Synthesis of some N-alkyl substituted urea derivatives as antibacterial and antifungal agents” (2010).

≈ marks a conversion by molar mass, not a printed value.

What all share (format): functional
One assay has as its system Bacillus subtilis. Kind of assay: Antibacterial activity against Bacillus subtilis ATCC 6633 after 24 hrs by MTT assay. The following applies: ATCC 6633, 24 h. Background: Tetrazolium assays rely on reduction of a dye to a coloured formazan, in cell work by metabolically active cells.
Another assay deals with Escherichia coli. Kind of assay: Antibacterial activity against Escherichia coli ATCC 35218 after 24 hrs by MTT assay. The conditions noted are these: ATCC 35218, 24 h.
The test system of a further assay is Staphylococcus aureus. Kind of assay: Antibacterial activity against Staphylococcus aureus ATCC 6538 after 24 hrs by MTT assay. The following applies: ATCC 6538, 24 h.
Another assay relates to Pseudomonas aeruginosa. Kind of assay: Antibacterial activity against Pseudomonas aeruginosa ATCC 13525 after 24 hrs by MTT assay. The following applies: ATCC 13525, 24 h.
In a further assay the test system is Aspergillus niger. Kind of assay: Antifungal activity against Aspergillus niger ATCC 16404 after 24 hrs by MTT assay. The following applies: ATCC 16404, 24 h.
Another assay concerns Trichophyton rubrum. Kind of assay: Antifungal activity against Trichophyton rubrum ATCC 10218 after 24 hrs by MTT assay. The conditions noted are these: ATCC 10218, 24 h.

Consider `CCN(CC)C(=O)Nc1ccc(Cl)cc1Cl`, for which the MIC against Bacillus subtilis is > 50 µg/mL; in the assay on Escherichia coli, > 50 µg/mL; against Staphylococcus aureus, > 50 µg/mL; with Pseudomonas aeruginosa, > 50 µg/mL; against Aspergillus niger it was 45.2 µg/mL (≈ 173 µM); against Trichophyton rubrum it was > 50 µg/mL.

As for `CC(C)c1ccc(NC(=O)N2CCOCC2)cc1`, the MIC with Bacillus subtilis was > 50 µg/mL; against Escherichia coli, 7.2 µg/mL (≈ 29 µM); against Staphylococcus aureus, > 50 µg/mL; against Pseudomonas aeruginosa, 8 µg/mL (≈ 32.2 µM); against Aspergillus niger, > 50 µg/mL; in the assay with Trichophyton rubrum, 20.7 µg/mL (≈ 83.4 µM).

Turning to `O=C(Nc1ccc(F)cc1)N1CCOCC1`, the MIC against Bacillus subtilis is > 50 µg/mL; against Escherichia coli it was 1.6 µg/mL (≈ 7.14 µM); in the assay with Staphylococcus aureus, > 50 µg/mL; against Pseudomonas aeruginosa it was 6.2 µg/mL (≈ 27.6 µM); against Aspergillus niger, > 50 µg/mL; in the assay on Trichophyton rubrum, 3.5 µg/mL (≈ 15.6 µM).

With `O=C(Nc1ccccc1F)N1CCOCC1`, the MIC against Bacillus subtilis was 1.6 µg/mL (≈ 7.14 µM); against Escherichia coli it was 2.1 µg/mL (≈ 9.37 µM); against Staphylococcus aureus, > 50 µg/mL; against Pseudomonas aeruginosa, 12.5 µg/mL (≈ 55.7 µM); against Aspergillus niger, > 50 µg/mL; against Trichophyton rubrum, 3.1 µg/mL (≈ 13.8 µM).

Turning to `O=C(Nc1ccc(F)cc1F)N1CCOCC1`, the MIC in the assay with Bacillus subtilis was > 50 µg/mL; against Escherichia coli, 4.2 µg/mL (≈ 17.3 µM); with Staphylococcus aureus, > 50 µg/mL; in the assay with Pseudomonas aeruginosa, > 50 µg/mL; in the assay on Aspergillus niger, > 50 µg/mL; in the assay with Trichophyton rubrum, 18.2 µg/mL (≈ 75.1 µM).

On to `O=C(Nc1ccc(Cl)cc1Cl)N1CCOCC1`, for which the MIC was > 50 µg/mL against Bacillus subtilis; 12.5 µg/mL (≈ 45.4 µM) with Escherichia coli; > 50 µg/mL in the assay on Staphylococcus aureus; 50 µg/mL (≈ 182 µM) in the assay on Pseudomonas aeruginosa; > 50 µg/mL with Aspergillus niger; > 50 µg/mL against Trichophyton rubrum.

Consider `O=C(Nc1ccc(Br)cc1)N1CCOCC1`, for which the MIC against Bacillus subtilis was > 50 µg/mL; against Escherichia coli, 3.1 µg/mL (≈ 10.9 µM); in the assay on Staphylococcus aureus it was > 50 µg/mL; with Pseudomonas aeruginosa, 37.1 µg/mL (≈ 130 µM); against Aspergillus niger, > 50 µg/mL; against Trichophyton rubrum, > 50 µg/mL.

On to `O=C(Nc1ccc2c(c1)Cc1ccccc1-2)N1CCOCC1`, for which the MIC in the assay on Bacillus subtilis was 40.2 µg/mL (≈ 137 µM); with Escherichia coli, > 50 µg/mL; in the assay with Staphylococcus aureus, > 50 µg/mL; with Pseudomonas aeruginosa, 31.5 µg/mL (≈ 107 µM); with Aspergillus niger, > 50 µg/mL; in the assay with Trichophyton rubrum, 31.2 µg/mL (≈ 106 µM).

On to `O=C(Nc1ccccc1)N1CCOCC1`, for which the MIC was > 50 µg/mL against Bacillus subtilis; 6.2 µg/mL (≈ 30.1 µM) against Escherichia coli; > 50 µg/mL in the assay on Staphylococcus aureus; 22 µg/mL (≈ 107 µM) in the assay with Pseudomonas aeruginosa; > 50 µg/mL in the assay with Aspergillus niger; > 50 µg/mL with Trichophyton rubrum.

For `Cc1ccc(NC(=O)N2CCOCC2)cc1`, the minimum inhibitory concentration (MIC) against Bacillus subtilis is > 50 µg/mL; with Escherichia coli, 7.2 µg/mL (≈ 32.7 µM); against Staphylococcus aureus it was > 50 µg/mL; against Pseudomonas aeruginosa it was > 50 µg/mL; with Aspergillus niger, > 50 µg/mL; against Trichophyton rubrum it was 38.4 µg/mL (≈ 174 µM).

For the compound `O=C(Nc1ccccc1Cl)N1CCOCC1`, the minimum inhibitory concentration (MIC) in the assay on Bacillus subtilis was 3.1 µg/mL (≈ 12.9 µM); against Escherichia coli, 3.1 µg/mL (≈ 12.9 µM); against Staphylococcus aureus, > 50 µg/mL; against Pseudomonas aeruginosa, > 50 µg/mL; in the assay with Aspergillus niger it was > 50 µg/mL; with Trichophyton rubrum, > 50 µg/mL.

Turning to `COc1ccc(NC(=O)N2CCOCC2)cc1`, the MIC against Bacillus subtilis is > 50 µg/mL; in the assay on Escherichia coli it was 7.5 µg/mL (≈ 31.7 µM); in the assay on Staphylococcus aureus, > 50 µg/mL; with Pseudomonas aeruginosa it was 12.5 µg/mL (≈ 52.9 µM); in the assay on Aspergillus niger it was > 50 µg/mL; in the assay on Trichophyton rubrum, 12.5 µg/mL (≈ 52.9 µM).

Take `O=C(Nc1cc(Cl)cc(Cl)c1)N1CCOCC1`: the MIC was 6.2 µg/mL (≈ 22.5 µM) in the assay with Bacillus subtilis; 12.5 µg/mL (≈ 45.4 µM) against Escherichia coli; > 50 µg/mL in the assay on Staphylococcus aureus; 8.8 µg/mL (≈ 32 µM) with Pseudomonas aeruginosa; > 50 µg/mL against Aspergillus niger; 12.5 µg/mL (≈ 45.4 µM) with Trichophyton rubrum.

As to `O=C(N1CCOCC1)N1CCCc2ccccc21`, the MIC with Bacillus subtilis is > 50 µg/mL; against Escherichia coli, > 50 µg/mL; against Staphylococcus aureus it was > 50 µg/mL; in the assay with Pseudomonas aeruginosa it was 8.2 µg/mL (≈ 33.3 µM); in the assay with Aspergillus niger, 12.5 µg/mL (≈ 50.7 µM); in the assay on Trichophyton rubrum, 12.5 µg/mL (≈ 50.7 µM).

For the compound `O=C(Nc1cccc2cccnc12)N1CCOCC1`, the MIC against Bacillus subtilis was 38.7 µg/mL (≈ 150 µM); against Escherichia coli, > 50 µg/mL; in the assay with Staphylococcus aureus it was > 50 µg/mL; in the assay with Pseudomonas aeruginosa it was 25.3 µg/mL (≈ 98.3 µM); against Aspergillus niger, > 50 µg/mL; with Trichophyton rubrum, 40.8 µg/mL (≈ 159 µM).

Consider `CCN(CC)C(=O)Nc1ccc(F)cc1`, for which the MIC against Bacillus subtilis is 6.2 µg/mL (≈ 29.5 µM); against Escherichia coli, 25 µg/mL (≈ 119 µM); in the assay with Staphylococcus aureus, > 50 µg/mL; with Pseudomonas aeruginosa it was 12.5 µg/mL (≈ 59.5 µM); against Aspergillus niger it was > 50 µg/mL; against Trichophyton rubrum, 32.6 µg/mL (≈ 155 µM).

As to `CCN(CC)C(=O)Nc1ccccc1F`, the MIC in the assay with Bacillus subtilis is 12.5 µg/mL (≈ 59.5 µM); in the assay with Escherichia coli, 25 µg/mL (≈ 119 µM); against Staphylococcus aureus it was > 50 µg/mL; in the assay with Pseudomonas aeruginosa, > 50 µg/mL; in the assay on Aspergillus niger, > 50 µg/mL; against Trichophyton rubrum, > 50 µg/mL.

On to `CCN(CC)C(=O)Nc1ccc(F)cc1F`, for which the MIC was 12.5 µg/mL (≈ 54.8 µM) against Bacillus subtilis; 25 µg/mL (≈ 110 µM) in the assay on Escherichia coli; > 50 µg/mL in the assay on Staphylococcus aureus; > 50 µg/mL against Pseudomonas aeruginosa; > 50 µg/mL with Aspergillus niger; > 50 µg/mL with Trichophyton rubrum.

`CCN(CC)C(=O)Nc1ccc(C(C)C)cc1`: the MIC against Bacillus subtilis was > 50 µg/mL; against Escherichia coli, > 50 µg/mL; against Staphylococcus aureus, > 50 µg/mL; with Pseudomonas aeruginosa, 12.5 µg/mL (≈ 53.3 µM); in the assay with Aspergillus niger, > 50 µg/mL; in the assay with Trichophyton rubrum, > 50 µg/mL.

`CCN(CC)C(=O)Nc1ccc(Br)cc1`: the MIC is > 50 µg/mL in the assay on Bacillus subtilis; 25 µg/mL (≈ 92.2 µM) in the assay with Escherichia coli; > 50 µg/mL in the assay with Staphylococcus aureus; > 50 µg/mL in the assay on Pseudomonas aeruginosa; 23 µg/mL (≈ 84.8 µM) in the assay with Aspergillus niger; > 50 µg/mL in the assay with Trichophyton rubrum.

With `NC[C@H]1O[C@H](O[C@H]2[C@H](O)[C@@H](O[C@H]3O[C@H](CO)[C@@H](O)[C@H](N)[C@H]3O)[C@H](N)C[C@@H]2N)[C@H](O)[C@@H](O)[C@@H]1O` [KANAMYCIN], the MIC in the assay on Bacillus subtilis turned out to be 0.4 µg/mL (≈ 0.826 µM); in the assay with Escherichia coli it was 3.1 µg/mL (≈ 6.4 µM); against Staphylococcus aureus, 1 µg/mL (≈ 2.06 µM); in the assay with Pseudomonas aeruginosa, 3.1 µg/mL (≈ 6.4 µM).

`CC(=O)N1CCN(c2ccc(OCC3COC(Cn4ccnc4)(c4ccc(Cl)cc4Cl)O3)cc2)CC1` (stereo not given) [KETOCONAZOLE]: the figures for the MIC in the assay with Aspergillus niger and against Trichophyton rubrum were 7.8 µg/mL (≈ 14.7 µM) and 3.9 µg/mL (≈ 7.34 µM), respectively.

For `CC1(C)S[C@@H]2[C@H](NC(=O)Cc3ccccc3)C(=O)N2[C@H]1C(=O)O` [PENICILLIN G], the MIC with Bacillus subtilis was 1.6 µg/mL (≈ 4.78 µM); against Escherichia coli it was > 50 µg/mL; against Staphylococcus aureus, 2 µg/mL (≈ 5.98 µM); against Pseudomonas aeruginosa, 6.2 µg/mL (≈ 18.5 µM).

For orientation: MIC means the least concentration at which growth counts as inhibited. A low value points to inhibition by little substance.
